Measurements: patent publication US6518423B1, “Benzopiperidine derivatives” (Eisai Co., Ltd., priority 1996, dated 2003)
Structures can show the parent of a compound that is named as a salt. Where two headings read alike, the source gives them in different places.

What was measured:
ICAM-1 = experiment: Effect on the expression of ICAM-1 in human cultured umbilical cord endothelial cells (TNF-stimulated, ELISA); type: cell-based; details: 1 ng/ml TNF, expression with TNF = 100%, without TNF = 0%, read-out: IC50 (50% inhibitory concentration of ICAM-1 expression)
Description: Effect on the Expression of ICAM-1 in Human Cultured Umbilical Cord Endothelial Cells
Examination was made on the effect on the expression of ICAM-1 which is one of adhesion molecules expressed on the surfaces of cultured endothelia cells. The endotheliall cells were suspended in an MCDB131 medium containing 10% of fetal calf serum and pipetted into a 96-well culture plate (10,000 cells/well). After culturing at 37° C. in the presence of 5% of carbon dioxide for 2 days, 1 ng/ml of a tumor necrosis factor (TNF) and a test compound were added to the 96-well culture plate. After culturing at 37° C. in the presence of 5% of carbon dioxide for 4 hours and then washing with a phosphate buffer once, 0.05% of glutaraldehyde was added thereto. Six minutes thereafter, the plate was washed twice and 1 μg/ml of a mouse antihuman ICAM-1 antibody was added thereto. After allowing to stand for 1 hour, it was washed twice and a peroxidase-labeled sheep antimouse immunoglobulin antibody was added thereto. After allowing to stand for 1 hour, it was washed twice and a color developing substrate for peroxidase (o-phenylenediamine) was added thereto. After allowing to stand at room temperature for 10 minutes, a 1 N solution of sulfuric acid was added thereto. Then the absorbance at 490 nm was measured with the use of an absorptiometer for 96-well plate. The value thus obtained was employed as an indication of the ICAM-1 expression.

[1] = Homo sapiens, Endothelial cell, 4 h

Row | SMILES | melting point | IC50 (ICAM-1; [1]) [nM] | IC50 (ICAM-1; 4 hours) [nM]
1 | O=C(O)C(F)=C1C2CCCC1CN(Cc1ccc3c(c1)Nc1nccnc1S3)C2 | 223 to 225 °C (dec.) | – | –
2 | COC(c1cccnc1)c1ccc2c(c1)Nc1nccnc1S2 (centres unmarked) | 156 to 188 °C | – | –
3 | CCc1ccc(C(O)c2ccc3c(c2)Nc2nccnc2S3)cn1 (centres unmarked) | 161 to 163 °C | – | –
4 | CC(CC1C2CN(Cc3ccc4c(c3)Nc3nccnc3S4)CC1C(C)CC2C)C(=O)O (centres unmarked) | 110 to 115 °C | – | –
5 | N#Cc1ncnc2c1ncn2Cc1ccc2c(c1)Nc1nccnc1S2 | 272 to 274 °C | – | –
6 | c1cnc2c(n1)Nc1cc(Cn3cnc4c(N5CCCCC5)ncnc43)ccc1S2 | 228 to 229 °C | – | –
7 | CCOC(=O)CCCCSc1ncnc2ncn(Cc3ccc4c(c3)Nc3nccnc3S4)c12 | 175 to 178 °C | – | –
8 | CCCCC(Sc1ncnc2c1ncn2Cc1ccc2c(c1)Nc1nccnc1S2)C(=O)O (centres unmarked) | 110 to 120 °C (dec.) | – | –
9 | N#CN=CN(Cc1ccc2c(c1)Nc1nccnc1S2)Cc1ccccn1 | 208 to 210 °C | – | –
10 | OC(c1ccc2c(c1)Nc1nccnc1S2)c1ccccc1CN1CCCCC1 (centres unmarked) | 219 to 221 °C | – | –
11 | CNc1c(N2CCN(Cc3ccc4c(c3)Nc3nccnc3S4)CC2)c(=O)c1=O | > 300 °C | – | –
12 | COc1cc2c(cc1CN1CCC(CCC(C)C(=O)O)CC1)Nc1nccnc1S2 (centres unmarked) | 155 to 160 °C | – | –
13 | O=C([O-])Cc1ccc(OC2CCN(Cc3ccc4c(c3)Nc3nccnc3S4)CC2)cc1.[Na+] | 261 to 265 °C (dec.) | – | –
14 | CC(CCC1CCN(Cc2cnc3c(c2)Nc2nccnc2S3)CC1)C(=O)O (centres unmarked) | 115 to 118 °C | – | –
15 | O=C(O)C=C1C2CCC1CN(Cc1ccc3c(c1)Nc1nccnc1S3)C2 [Example 70] | 268 to 271 °C | 2800 | –
16 | O=C(O)C1C2CCCC1CN(Cc1ccc3c(c1)Nc1nccnc1S3)C2 (centres unmarked) [Example 74] | 272 to 275 °C | 1900 | –

Row | SMILES | melting point | IC50 (ICAM-1; [1]) [nM] | IC50 (ICAM-1; 4 hours) [nM]
17 | CC(C)(C)C1CC2CN(Cc3ccc4c(c3)Nc3nccnc3S4)CC(C1)C2CC(=O)O (centres unmarked) [Example 77] | 138 to 140 °C | 2800 | –
18 | O=C(O)CC1C2CCCCC1CN(Cc1ccc3c(c1)Nc1nccnc1S3)C2 (centres unmarked) [Example 80] | 217 to 218 °C | 4100 | –
19 | CC(C(=O)O)C1C2CCCC1CN(Cc1ccc3c(c1)Nc1nccnc1S3)C2 (centres unmarked) [Example 82] | – | 3400 | –
20 | O=C(O)CC1C2CN(Cc3ccc4c(c3)Nc3nccnc3S4)CC1C21CCC1 (centres unmarked) [Example 85] | 175 to 180 °C | 6400 | –
21 | O=C(O)CC1C2CN(Cc3ccc4c(c3)Nc3nccnc3S4)CC1C21CCC1 (centres unmarked) [Example 86] | 90 to 92 °C | – | –
22 | O=C(O)CC1C2CC(c3ccccc3)CC1CN(Cc1ccc3c(c1)Nc1nccnc1S3)C2 (centres unmarked) [Example 87] | 128 to 131 °C | 2900 | –
23 | O=C(O)C12CCCC(CN(Cc3ccc4c(c3)Nc3nccnc3S4)C1)C2 (centres unmarked) [Example 90] | 186 to 188 °C | 2800 | –
24 | CC(CCC1C2CN(Cc3ccc4c(c3)Nc3nccnc3S4)CC1C(C)CC2C)C(=O)O (centres unmarked) [Example 100] | 110 to 115 °C | 3800 | –
25 | CC1CC(C)C2CN(Cc3ccc4c(c3)Nc3nccnc3S4)CC1C2CCCC(=O)O (centres unmarked) [Example 102] | 98 to 105 °C | 2600 | –
26 | COC1(CC(=O)O)C2CCCC1CN(Cc1ccc3c(c1)Nc1nccnc1S3)C2 (centres unmarked) [Example 103] | 217 to 219 °C | 6600 | –
27 | O=C(O)CC12CCCC(CN(Cc3ccc4c(c3)Nc3nccnc3S4)C1)C2 (centres unmarked) [Example 104] | 215 to 217 °C | 2800 | –
28 | COC1(CC(=O)O)C2CCCC1CN(Cc1ccc3c(c1)Nc1nccnc1S3)C2 (centres unmarked) [Example 105] | 225 to 228 °C | – | 5800
29 | CC1(C(=O)O)C2CCCC1CN(Cc1ccc3c(c1)Nc1nccnc1S3)C2 (centres unmarked) [Example 113] | 264 to 265 °C | 2500 | –
30 | CC1(C(=O)O)C2CCCC1CN(Cc1ccc3c(c1)Nc1nccnc1S3)C2 (centres unmarked) [Example 116] | 183 to 185 °C | – | –
31 | O=C(O)C=C1CC2CCC(C1)N2Cc1ccc2c(c1)Nc1nccnc1S2 [Example 118] | 206 to 208 °C | 1600 | –
32 | CNc1ncnc2c1ncn2Cc1ccc2c(c1)Nc1nccnc1S2 [Example 1409] | 279 to 281 °C | 670 | –

Continued, in another order:

Row | melting point | SMILES | IC50 (ICAM-1; [1]) [nM] | IC50 (ICAM-1; 4 hours) [nM]
33 | 265 to 268 °C | COC(=O)c1ccc2c(c1)Nc1nccnc1S2 | – | –
34 | 222 to 224 °C | CCOC(=O)c1ncn(Cc2ccc3c(c2)Nc2nccnc2S3)c1C | – | –
35 | 275 to 276 °C | O=C(O)/C=C/c1cn(Cc2ccc3c(c2)Nc2nccnc2S3)cn1 | – | –
36 | > 298 °C | C/C(=C\c1c(C)ncn1Cc1ccc2c(c1)Nc1nccnc1S2)C(=O)O | – | –
37 | 188 to 192 °C | Cc1ncn(Cc2ccc3c(c2)Nc2nccnc2S3)c1CO | – | –
38 | 206 to 208 °C | c1cnc2c(n1)Nc1cc(Cn3ncnn3)ccc1S2 | – | –
39 | 164 to 165 °C | CCOP(=O)(Cc1ccc2c(c1)Nc1nccnc1S2)OCC | – | –
40 | 203 to 204 °C | CN(Cc1ccc2c(c1)Nc1nccnc1S2)CC1CCC(C(=O)O)CC1 (centres unmarked) | – | –
41 | 220 to 225 °C | O=C(O)CCNC(=O)Cc1ccc2c(c1)Nc1nccnc1S2 | – | –
42 | 174 to 177 °C | OCCCc1ncnc2c1ncn2Cc1ccc2c(c1)Nc1nccnc1S2 | – | –
43 | 152 to 154 °C (dec.) | OCC#Cc1ncnc2c1ncn2Cc1ccc2c(c1)Nc1nccnc1S2 | – | –
44 | 226 to 227 °C | N/C(Cc1ccc2c(c1)Nc1nccnc1S2)=N\NS(=O)(=O)c1ccccc1 | – | –
45 | 275 to 277 °C | CS(=O)(=O)NC1CN=C(Cc2ccc3c(c2)Nc2nccnc2S3)NC1.Cl (centres unmarked) | – | –
46 | 268 to 270 °C | N#CN=C(Cc1ccc2c(c1)Nc1nccnc1S2)NCCO | – | –
47 | 224 to 226 °C | N#CN=CNCc1ccc2c(c1)Nc1nccnc1S2 | – | –
48 | > 265 °C (dec.) | CN/C(=C\[N+](=O)[O-])NCc1ccc2c(c1)Nc1nccnc1S2 | – | –
49 | 196 to 199 °C | NS(=O)(=O)NC1CCN(Cc2ccc3c(c2)Nc2nccnc2S3)CC1 | – | –
50 | 191 to 192 °C | CN1CCN(Cc2ccc3c(c2)Nc2nccnc2S3)CC1 | – | –
51 | 176 to 180 °C | CC1(O)CCN(Cc2ccc3c(c2)Nc2nccnc2S3)CC1 | – | –
52 | 168 to 170 °C | CC(=O)NCC1CCN(Cc2ccc3c(c2)Nc2nccnc2S3)CC1 | – | –

Row | melting point | SMILES | IC50 (ICAM-1; [1]) [nM] | IC50 (ICAM-1; 4 hours) [nM]
53 | 161 to 163 °C | c1cnc2c(n1)Nc1cc(CN3CCCCCC3)ccc1S2 | – | –
54 | 125 to 127 °C | CC(C(=O)O)=C1CCN(Cc2ccc3c(c2)Nc2nccnc2S3)CC1 | – | –
55 | 232 to 234 °C | COC(=O)c1ccc(CN2c3ccccc3Nc3nccnc32)cc1 | – | –
56 | 195 to 197 °C | COc1ccc2c(c1)N(C)c1nccnc1N2 | – | –
57 | > 275 °C | CN1c2ccc(CNC(=N)N)cc2Nc2nccnc21 | – | –
58 | 245 to 250 °C | NC(=O)c1ccc(NCc2ccc3c(c2)Nc2nccnc2S3)nc1 | – | –
59 | 205 to 208 °C | Cc1ccc(NCc2ccc3c(c2)Nc2nccnc2S3)cn1 | – | –
60 | 290 to 300 °C | Cc1cc(NCc2ccc3c(c2)Nc2nccnc2S3)c2ccccc2n1 | – | –
61 | 97 to 104 °C (dec.) | NCc1ncnc2c1ncn2Cc1ccc2c(c1)Nc1nccnc1S2 (as salt: oxalate) | – | –
62 | 161 to 162 °C | COC(=O)c1ccc(-c2cn(Cc3ccc4c(c3)Nc3nccnc3S4)cn2)cc1 (as salt: trifluoroacetate) | – | –
63 | 241 to 242 °C (dec.) | Cl.O[C@@H]1CN(Cc2ccc3c(c2)Nc2nccnc2S3)C[C@H]1O (relative stereo) | – | –
64 | 112 to 117 °C | O=C(O)CC1CC2CN(Cc3ccc4c(c3)Nc3nccnc3S4)CC2C1 (centres unmarked) [711] | – | –
65 | 110 to 115 °C | O=C(O)CC1CC2CN(Cc3ccc4c(c3)Nc3nccnc3S4)CC2C1 (centres unmarked) [714] | – | –
66 | 240 to 242 °C | CC(C)(CCCN1CCN(Cc2ccc3c(c2)Nc2nccnc2S3)CC1)C(=O)O [750] | – | –
67 | > 275 °C | CC(C)(CCCN1CCN(Cc2ccc3c(c2)Nc2nccnc2S3)CC1)C(=O)O [751] | – | –
68 | 142 to 143 °C | CCOC(=O)CC1C2CCCC1CN(Cc1ccc3c(c1)Nc1nccnc1S3)C2 (centres unmarked) [Example 17] | – | –
69 | 142 to 146 °C | CC1CC2CN(Cc3ccc4c(c3)Nc3nccnc3S4)CC(C1)C2CC(=O)O (centres unmarked) [Example 78] | – | –
70 | 215 to 219 °C | OC1C2CCCC1CN(Cc1ccc3c(c1)Nc1nccnc1S3)C2 (centres unmarked) [Example 126] | – | –
71 | 189 to 192 °C | OC1C2CCCC1CN(Cc1ccc3c(c1)Nc1nccnc1S3)C2 (centres unmarked) [Example 127] | – | –
